This note sets out measurements from patent publication US20240390318A1, “PHARMACEUTICAL COMPOSITION COMPRISING CDK INHIBITOR AND ID2 ACTIVATOR FOR PREVENTION OR TREATMENT OF BLADDER CANCER” (THE ASAN FOUNDATION, priority 2021, published 2024).

Assay [1] has as its system bladder cancer cell lines. Kind of assay: Cell proliferation by MTT assay. It is filed as cell-based, human. As to conditions: for cell growth, proliferation: low concentrations, single or co-treatment; for growth of BC cells: bladder cancer cell lines, apigenin with increasing dosage. On the procedure: (§1) Human BC cell lines T24, 5637, HT1197, HT1376, and RT4 were cultured in Eagle's Minimum Essential (for HT1197 and HT1376), McCoy's 5a Medium Modified (for T24 and RT4), and RPMI-1640 (for […]) medium (ATCC, Manassas, VA, USA) including 10% heat-inactivated FBS (Hyclone, Pittsburgh, PA, USA) and penicillin/streptomycin (Cellgro, Pittsburgh, PA, USA). 40 μM apigenin (Sigma-Aldrich, Burlington, MA, USA), 4-hydroxychalcone (Sigma-Aldrich), and diosmetin (Sigma-Aldrich) were treated for 24 hours to activate ID2 expression, and 20 μM RO-3306 (Sigma-Aldrich) and CGP74514A (Sigma-Aldrich) were treated for 24 hours to inhibit CDK1 activity.
(§2) The cell proliferation ability was determined by MTT assay (Sigma-Aldrich). Apoptosis was analyzed by annexin-V fluorescein isothiocyanate (FITC)/propidium iodide (PI) assay. Cells were subjected to trypsin, harvested, washed with PBS, resuspended in annexin-V binding buffer (10 mM HEPES, pH 7.4, 140 mM NaCl, 2.5 mM CaCl2)), and labeled with Annexin-V FITC and PI. FITC- and/or PI-labeled cell colonies were quantified by flow cytometry (Beckman Coulter, Brea, CA, USA).
For orientation: Tetrazolium dyes change colour on reduction, which living cells bring about.

The test system of assay [2] is bladder cancer cell lines. Kind of assay: Western blot of caspase-3 and PARP cleavage. In kind it is cell-based, human. As to conditions: for cleavage of caspase-3 and PARP: low concentrations, single or co-treatment. On the procedure:
as §1
(§3) Cell extracts (30 μg) were prepared in RIPA lysis buffer (Santa Cruz Biotechnology) supplemented with a protease and phosphatase inhibitor cocktail (Roche, Indianapolis, IN, USA) and isolated in a 12% SDS-PAGE gel. An expression level of the labeled protein was assessed by probing with the following antibodies: ID2 (NBP-88630; Novusbio, Centennial, CO, USA), TFCP2L1 (OAAB09732; Aviva Systems Biology, San Diego, CA, USA), CDK1 (sc-54; Santa Cruz), PARP (9542; Cell Signaling), Cleaved Caspase-3 (9661; Cell Signaling), b-ACTIN (A5441; Sigma-Aldrich), and Flag-epitope (F3165; Sigma-Aldrich).
(A western blot detects proteins with antibodies after separation by electrophoresis.)

In assay [3] the test system is bladder cancer cell lines. Kind of assay: Apoptosis by annexin-V FITC/PI flow cytometry. In kind it is cell-based, human. Particulars: for apoptosis of bladder cancer cells: low concentrations, single or co-treatment; for apoptosis of BC cells: bladder cancer cell lines, apigenin time-dependent treatment. How it is done:
as §1, §2

The test system of assay [4] is HT1376 cells. Kind of assay: Orthotopic xenograft BC animal model, tumor size and histological examination. It is filed as in vivo. Particulars: NSG mice; for tumor growth suppression/inhibition: i.p. apigenin 50 mg/kg and/or RO-3306 4 mg/kg, 6 times at 4-day intervals. How it is done:
(§4) All animal experiments conducted in this experiment were carried out with the approval of the Institutional Animal Care Committee (IACUC-2020-12-209) of the University of Ulsan College of Medicine. 8-week-old male NOD/[…]) mice were purchased from GEM Biosciences Inc. (Cheongju, South Korea). 100 μl of 1.0×10^6 HT1376 BC cells were injected into the anterior wall of the bladder and the outer layer of the dome using a […] and a 26-gauge needle in the mice adapted for 1 week at the Animal Laboratory of Asan Medical Center, Seoul. Three weeks after orthotopic transplantation of BC cells, mice were injected intraperitoneally with RO-3306 (4 mg/kg) and apigenin (50 mg/kg), either alone or in combination, for 6 times at 4-day intervals. Mice and injection sites were monitored every 2 days for 45 days after the initial administration of BC cells. Tumor size was measured at the endpoint, and the tumor site was recovered by incision to perform histological examination or immunofluorescence assay. Mice were randomly assigned to the treatment group (N=5 or 10) and randomized to the sequence of cell transplantation, treatment, evaluation, and daily checkup. Investigations related to tumor size measurement and histological assessment were conducted as blind tests for the treatment group. For histological analysis, the bladder of xenograft mice was fixed with 4% paraformaldehyde for 1 day. After 24 hours of cryoprotection in 30% sucrose, each bladder was cut into 20 μm sections using cryostat (Leica, Lussloch, Germany) and stained with hematoxylin and eosin (H&E). For immunofluorescence (IF) staining, the bladder was stained with antibodies specific to ID2 (NBP-88630; Novusbio), TFCP2L1 (OAAB09732; Aviva Systems Biology), CDK1 (ab131450; Abcam, Cambridge, MA, USA), CD44 (ab78960; Abcam), and Cytokeratin 14 (KRT14; Ab7800). […] The stained samples were photographed using an inverted fluorescence microscope (EVOS FL Color Imaging System, Life Technologies).

The subject of assay [5] is ID2. The assay is described as follows: ID2 expression in bladder cancer cells (qPCR, Western blot). It is filed as cell-based, human. Particulars: HT1197 and HT1376 cells; ID2 activators 40 μM, CDK1 inhibitors 20 μM, 24 hours. On the procedure: as §1
Real-time quantification PCR was used to perform quantitative analysis of gene expression. Total RNA was extracted using the QIAGEN RNeasy RNA isolation kit (QIAGEN, Valencia, CA, USA), and 50 ng of total RNA was reverse transcribed using Taqman Reverse Transcription Reagents (Applied Biosystems, Foster City, CA, USA). Threshold cycles (Ct) were used to determine the relative expression levels of target genes using the 2-DDCt method. The expression of GAPDH was used as an endogenous control gene.
as §3
(Real-time PCR tracks product formation cycle by cycle.)

The test system of assay [6] is ID2. The assay is described as follows: ID2 protein expression in orthotopic xenograft bladder (immunofluorescence). It is filed as in vivo, mice. Particulars: HT1376 orthotopic xenograft; RO-3306 4 mg/kg alone or with apigenin 50 mg/kg i.p. How it is done: as §4, with “checkup.” for “checkup. Investigations related to tumor size measurement and histological assessment were conducted as blind tests for the treatment group. For histological analysis, the bladder of xenograft mice was fixed with 4% paraformaldehyde for 1 day. After 24 hours of cryoprotection in 30% sucrose, each bladder was cut into 20 μm sections using cryostat (Leica, Lussloch, Germany) and stained with hematoxylin and eosin (H&E). For immunofluorescence (IF) staining, the bladder was stained with antibodies specific to ID2 (NBP-88630; Novusbio), TFCP2L1 (OAAB09732; Aviva Systems Biology), CDK1 (ab131450; Abcam, Cambridge, MA, USA), CD44 (ab78960; Abcam), and Cytokeratin 14 (KRT14; Ab7800).”

Assay [7] deals with CDK1. Kind of assay: CDK1 protein expression in orthotopic xenograft bladder (immunofluorescence). It is filed as in vivo, mice. Particulars: HT1376 orthotopic xenograft; RO-3306 4 mg/kg alone or with apigenin 50 mg/kg i.p. On the procedure: as §4, with “checkup.” for “checkup. Investigations related to tumor size measurement and histological assessment were conducted as blind tests for the treatment group. For histological analysis, the bladder of xenograft mice was fixed with 4% paraformaldehyde for 1 day. After 24 hours of cryoprotection in 30% sucrose, each bladder was cut into 20 μm sections using cryostat (Leica, Lussloch, Germany) and stained with hematoxylin and eosin (H&E). For immunofluorescence (IF) staining, the bladder was stained with antibodies specific to ID2 (NBP-88630; Novusbio), TFCP2L1 (OAAB09732; Aviva Systems Biology), CDK1 (ab131450; Abcam, Cambridge, MA, USA), CD44 (ab78960; Abcam), and Cytokeratin 14 (KRT14; Ab7800).”

The test system of assay [8] is TFCP2L1. The assay is described as follows: TFCP2L1 protein expression in orthotopic xenograft bladder (immunofluorescence). It is filed as in vivo, mice. Particulars: HT1376 orthotopic xenograft; RO-3306 4 mg/kg alone or with apigenin 50 mg/kg i.p. On the procedure:
as §4, with “checkup.” for “checkup. Investigations related to tumor size measurement and histological assessment were conducted as blind tests for the treatment group. For histological analysis, the bladder of xenograft mice was fixed with 4% paraformaldehyde for 1 day. After 24 hours of cryoprotection in 30% sucrose, each bladder was cut into 20 μm sections using cryostat (Leica, Lussloch, Germany) and stained with hematoxylin and eosin (H&E). For immunofluorescence (IF) staining, the bladder was stained with antibodies specific to ID2 (NBP-88630; Novusbio), TFCP2L1 (OAAB09732; Aviva Systems Biology), CDK1 (ab131450; Abcam, Cambridge, MA, USA), CD44 (ab78960; Abcam), and Cytokeratin 14 (KRT14; Ab7800).”

Assay [9] relates to bladder cancer cell lines. The assay is described as follows: Tumor sphere formation. In kind it is cell-based, human. How it is done:
To form tumor spheres, BC cells were resuspended in a single-cell suspension mixed with serum-free keratinocyte growth medium (Gibco, Waltham, MA, USA) and growth factor-reduced Matrigel (BD Biosciences, Mountain View, CA, USA) in a 1:1 ratio, and cultured on ultra-low attachment plates (Costar, Corning, NY, USA). The size of the tumor sphere was measured for 7 days after the first culture. For quantitative analysis, Image J software (National Institute of Mental Health, Bethesda, MD, USA) was used to measure the circumference of tumor sphere in eight representative regions randomly selected from each group.

The subject of assay [10] is bladder cancer cell lines. The assay is described as follows: In vitro cell invasion (Transwell, Matrigel). It is filed as cell-based, human. On the procedure:
The upper chamber of the Transwell permeable support (Corning Inc, Corning, NY, USA) with an 8.0 μm pore polycarbonate membrane filter was coated with Matrigel (BD Biosciences) diluted in a 1:5 ratio. BC cells were loaded into the upper chamber at 2×10^4 cell/well concentrations in 100 μL of serum-free DMEM, and culture medium containing 3% FBS was filled into the lower chamber. Cell invasiveness was evaluated by culturing cells at 37° C. for 24 hours in a 5% CO2 incubator and then counting the number of cells that migrated to the bottom of the membrane. Three fields of view (magnification, ×200) were randomly selected from each transwell chamber for quantitative analysis.

With `O=C1NC(=NCc2cccs2)S/C1=C\c1ccc2ncccc2c1` [RO-3306], the “cell growth, proliferation” value in assay [1] is “no significant effect”. For the same molecule, the “cleavage of caspase-3 and PARP” value in assay [2] is on record as “no significant effect”. For the same molecule, the “apoptosis of bladder cancer cells” value in [3] was “does not induce”. Besides, the tumor growth suppression/inhibition in assay [4] is listed as 66.8±2.48%. Further, the “expression of ID2 at RNA and protein levels” value (from here on “expression of ID2”) in assay [5] is given as “increased”. The “expression level of ID2 protein” value in assay [6] is “low”. In addition, in [7], the “expression of CDK1 protein” value is reported as “high”. Moreover, the “expression of TFCP2L1 protein” value in assay [8] was “high”.

As to `O=C(/C=C/c1ccc(O)cc1)c1ccccc1` [4-hydroxychalcone], in assay [1], the “growth of BC cells” value is recorded as “reduced the growth of bladder cancer cells”. The “apoptosis of BC cells” value in assay [3] is recorded as “activated apoptosis”. Further, the “tumor sphere forming ability” value in assay [9] is “tumor forming ability was reduced”. Besides, in [5], the “expression of ID2” value is recorded as “increase in ID2 expression”.

As for `O=c1cc(-c2ccc(O)cc2)oc2cc(O)cc(O)c12` [apigenin], in [1], the “growth of BC cells” value is “decreased significantly” and the “cell growth, proliferation” value is given as “no significant effect”. Also, in assay [2] (bladder cancer cell lines), the “cleavage of caspase-3 and poly-(ADP-ribose) polymerase (PARP)” value is “resulted in cleavage of caspase-3 and poly-(ADP-ribose) polymerase (PARP)”. The “cleavage of caspase-3 and PARP” value in [2] was “no significant effect”. Also, in assay [3], the “apoptosis of BC cells” value is “activated” and the “apoptosis of bladder cancer cells” value is given as “does not induce”. Further, in assay [9], the “tumor sphere forming ability” value is “remarkably inhibit”. Also, the “invasiveness of BC cells” value in [10] is listed as “remarkably inhibit”. Moreover, the “histological examination: therapeutic effect, size and progression of bladder cancer” value in assay [4] (i.p. 6 times at 4-day intervals) was “therapeutic effect of apigenin on bladder cancer regardless of tumor grade”. The tumor growth suppression/inhibition in assay [4] came out at 74±6.13%. In addition, in [5], the “expression of ID2” value is “increased”.

Consider `COc1ccc(-c2cc(=O)c3c(O)cc(O)cc3o2)cc1O` [diosmetin], for which the “growth of BC cells” value in [1] is “reduced bladder cancer cell growth”. For the same molecule, the “apoptosis of BC cells” value in assay [3] is given as “activated apoptosis”. In assay [9], the “tumor sphere forming ability” value is “decreased tumor forming ability”.

With `CCn1cnc2c(Nc3cccc(Cl)c3)nc(N[C@@H]3CCCC[C@@H]3N)nc21` [CGP74514A], in assay [5], the “expression of ID2” value is recorded as “increase in ID2 expression”.
